# Experimental data reported in PubChem BioAssay (NCI).
#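 The compound was tested at five concentrations on cells cultured in 96-well plates, with a 48-hour exposure period. TGI marks complete inhibition of growth.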
# Experiments:
# Assay in all cases: NCI anticancer screen, dose series, 48 h
# [1] = system: 786-0 renal
# [2] = system: A498 renal
# [3] = system: A549 NSCLC
# [4] = system: ACHN renal
# [5] = system: BT-549 breast
# [6] = system: CAKI-1 renal
# [7] = system: CCRF-CEM leukemia
# [8] = system: COLO 205 colon
# [9] = system: DU-145 prostate
# [10] = system: EKVX NSCLC
# [11] = system: HCC-2998 colon
# [12] = system: HCT-116 colon
# [13] = system: HCT-15 colon
# [14] = system: HL-60(TB) leukemia
# [15] = system: HOP-62 NSCLC
# [16] = system: HOP-92 NSCLC
# [17] = system: HS 578T breast
# [18] = system: HT29 colon
# [19] = system: IGROV1 ovarian
# [20] = system: K-562 leukemia
# [21] = system: KM12 colon
# [22] = system: LOX IMVI melanoma
# [23] = system: M14 melanoma
# [24] = system: MALME-3M melanoma
# [25] = system: MCF7 breast
# [26] = system: MDA-MB-231 breast
# [27] = system: MDA-MB-435
# [28] = system: MDA-N
# [29] = system: MOLT-4 leukemia
# [30] = system: NCI-H23 lung
# [31] = system: NCI-H460 lung
# [32] = system: NCI-H522 lung
# [33] = system: NCI/ADR-RES ovarian
# [34] = system: OVCAR-3 ovarian
# [35] = system: OVCAR-5 ovarian
# [36] = system: OVCAR-8 ovarian
# [37] = system: PC-3 prostate
# [38] = system: RPMI-8226 leukemia
# [39] = system: RXF 393 renal
# [40] = system: SF-268 CNS
# [41] = system: SF-295 CNS
# [42] = system: SF-539 CNS
# [43] = system: SK-MEL-2 melanoma
# [44] = system: SK-MEL-28 melanoma
# [45] = system: SK-MEL-5 melanoma
# [46] = system: SK-OV-3 ovarian
# [47] = system: SN12C renal
# [48] = system: SNB-19 CNS
# [49] = system: SNB-75 CNS
# [50] = system: SR leukemia
# [51] = system: SW-620 colon
# [52] = system: T-47D breast
# [53] = system: TK-10 renal
# [54] = system: U251 CNS
# [55] = system: UACC-257 melanoma
# [56] = system: UACC-62 melanoma
# [57] = system: UO-31 renal
# [58] = system: NCI-H226 lung
# [59] = system: OVCAR-4 ovarian
structure (smiles),measurement,setting,value
CC1(C)[C@H]2CC[C@](C)(C2)[C@]1(S)Cc1ccccn1,TGI,[1],> 100 µM
same,TGI,[2],> 100 µM
same,TGI,[3],> 100 µM
same,TGI,[4],> 100 µM
same,TGI,[5],> 100 µM
same,TGI,[6],> 100 µM
same,TGI,[7],24.8 µM
same,TGI,[8],> 100 µM
same,TGI,[9],> 100 µM
same,TGI,[10],> 100 µM
same,TGI,[11],41.5 µM
same,TGI,[12],> 100 µM
same,TGI,[13],> 100 µM
same,TGI,[14],50.9 µM
same,TGI,[15],> 100 µM
same,TGI,[16],> 100 µM
same,TGI,[17],> 100 µM
same,TGI,[18],> 100 µM
same,TGI,[19],> 100 µM
same,TGI,[20],> 100 µM
same,TGI,[21],> 100 µM
same,TGI,[22],36.8 µM
same,TGI,[23],> 100 µM
same,TGI,[24],> 100 µM
same,TGI,[25],> 100 µM
same,TGI,[26],> 100 µM
same,TGI,[27],91.9 µM
same,TGI,[28],> 100 µM
same,TGI,[29],54 µM
same,TGI,[30],> 100 µM
same,TGI,[31],> 100 µM
same,TGI,[32],> 100 µM
same,TGI,[33],> 100 µM
same,TGI,[34],73 µM
same,TGI,[35],> 100 µM
same,TGI,[36],42.6 µM
same,TGI,[37],67.6 µM
same,TGI,[38],93.5 µM
same,TGI,[39],80.2 µM
same,TGI,[40],> 100 µM
same,TGI,[41],98.8 µM
same,TGI,[42],> 100 µM
same,TGI,[43],46.1 µM
same,TGI,[44],> 100 µM
same,TGI,[45],64.3 µM
same,TGI,[46],93.6 µM
same,TGI,[47],> 100 µM
same,TGI,[48],> 100 µM
same,TGI,[49],77.1 µM
same,TGI,[50],43.2 µM
same,TGI,[51],> 100 µM
same,TGI,[52],73.1 µM
same,TGI,[53],> 100 µM
same,TGI,[54],36.6 µM
same,TGI,[55],72.7 µM
same,TGI,[56],> 100 µM
same,TGI,[57],> 100 µM
N=C(N)SC(c1ccccc1)c1ccccc1,TGI,[1],25.2 µM
same,TGI,[2],36.6 µM
same,TGI,[3],95.2 µM
same,TGI,[4],29.8 µM
same,TGI,[5],37.2 µM
same,TGI,[6],29.4 µM
same,TGI,[7],32.1 µM
same,TGI,[8],47.1 µM
same,TGI,[9],25.4 µM
same,TGI,[10],33.6 µM
same,TGI,[11],20.1 µM
same,TGI,[12],24.6 µM
same,TGI,[13],40.7 µM
same,TGI,[14],36.8 µM
same,TGI,[15],41.1 µM
same,TGI,[16],22.9 µM
same,TGI,[17],> 100 µM
same,TGI,[18],34.4 µM
same,TGI,[19],42.8 µM
same,TGI,[20],85.3 µM
same,TGI,[21],32.9 µM
same,TGI,[22],30.7 µM
same,TGI,[23],23.7 µM
same,TGI,[24],34.6 µM
same,TGI,[25],30 µM
same,TGI,[26],33.5 µM
same,TGI,[27],26.5 µM
same,TGI,[28],26.5 µM
same,TGI,[29],56.6 µM
same,TGI,[58],60.9 µM
same,TGI,[30],28.3 µM
same,TGI,[31],37.1 µM
same,TGI,[32],34.8 µM
same,TGI,[33],47 µM
same,TGI,[34],28.7 µM
same,TGI,[59],37.6 µM
same,TGI,[35],32.2 µM
same,TGI,[36],36.4 µM
same,TGI,[37],27.3 µM
same,TGI,[38],31.7 µM
same,TGI,[39],19.4 µM
same,TGI,[40],78.5 µM
same,TGI,[41],34.7 µM
same,TGI,[42],37.7 µM
same,TGI,[43],32 µM
same,TGI,[44],18.6 µM
same,TGI,[45],32.2 µM
same,TGI,[46],> 100 µM
same,TGI,[47],32.7 µM
same,TGI,[48],> 100 µM
same,TGI,[50],> 100 µM
same,TGI,[51],44.6 µM
same,TGI,[52],22.6 µM
same,TGI,[53],28.2 µM
same,TGI,[54],29.4 µM
same,TGI,[55],28.4 µM
same,TGI,[56],30.8 µM
same,TGI,[57],23.2 µM
S=P(C1CCCCC1)(C1CCCCC1)C(c1cccnc1)N1CCCC1 (stereo unspecified),TGI,[1],31.5 µM
same,TGI,[2],67.9 µM
same,TGI,[3],35.4 µM
same,TGI,[4],34.7 µM
same,TGI,[5],35.6 µM
same,TGI,[6],31.9 µM
same,TGI,[7],36.3 µM
same,TGI,[8],37.3 µM
same,TGI,[9],29.8 µM
same,TGI,[10],41.7 µM
same,TGI,[12],34.2 µM
same,TGI,[13],> 100 µM
same,TGI,[14],37 µM
same,TGI,[15],36.2 µM
same,TGI,[16],42.7 µM
same,TGI,[17],84.3 µM
same,TGI,[18],> 100 µM
same,TGI,[19],33.8 µM
same,TGI,[20],39.2 µM
same,TGI,[21],33.4 µM
same,TGI,[22],23.6 µM
same,TGI,[23],34.6 µM
same,TGI,[24],39.9 µM
same,TGI,[25],> 100 µM
same,TGI,[26],39.1 µM
same,TGI,[27],33.6 µM
same,TGI,[28],39.3 µM
same,TGI,[29],42.7 µM
same,TGI,[58],38 µM
same,TGI,[30],34.6 µM
same,TGI,[31],50.7 µM
same,TGI,[32],41.2 µM
same,TGI,[33],38.6 µM
same,TGI,[34],> 100 µM
same,TGI,[59],55.7 µM
same,TGI,[35],> 100 µM
same,TGI,[36],51.7 µM
same,TGI,[37],36.9 µM
same,TGI,[38],38.3 µM
same,TGI,[39],33.4 µM
same,TGI,[40],38.4 µM
same,TGI,[41],49.2 µM
same,TGI,[42],35.2 µM
same,TGI,[43],48.7 µM
same,TGI,[44],> 100 µM
same,TGI,[45],31.9 µM
same,TGI,[46],> 100 µM
same,TGI,[47],33.1 µM
same,TGI,[48],> 100 µM
same,TGI,[49],35.4 µM
same,TGI,[50],44.7 µM
same,TGI,[51],> 100 µM
same,TGI,[52],> 100 µM
same,TGI,[53],34.3 µM
same,TGI,[54],46.6 µM
same,TGI,[55],> 100 µM
same,TGI,[56],52.5 µM
CCC1CCC2C3CC=C4CC(OC(C)=O)C(N)CC4(C)C3CCC12C (stereo unspecified),TGI,[1],3.79 µM
same,TGI,[2],9.63 µM
same,TGI,[3],5.13 µM
same,TGI,[4],17.6 µM
same,TGI,[5],10.6 µM
same,TGI,[6],22.9 µM
same,TGI,[7],10 µM
same,TGI,[8],10 µM
same,TGI,[9],8.33 µM
same,TGI,[10],13.8 µM
same,TGI,[11],3.06 µM
same,TGI,[12],6.14 µM
same,TGI,[13],12.5 µM
same,TGI,[14],4.48 µM
same,TGI,[15],4.47 µM
same,TGI,[16],10.8 µM
same,TGI,[17],5.1 µM
same,TGI,[18],6.32 µM
same,TGI,[19],18.2 µM
same,TGI,[20],4.91 µM
same,TGI,[21],8.64 µM
same,TGI,[22],4.12 µM
same,TGI,[23],3.6 µM
same,TGI,[24],8.33 µM
same,TGI,[25],14 µM
same,TGI,[26],4.09 µM
same,TGI,[27],5.66 µM
same,TGI,[28],6.92 µM
same,TGI,[29],8.01 µM
same,TGI,[58],39.7 µM
same,TGI,[30],13.6 µM
same,TGI,[31],3.53 µM
same,TGI,[32],6.67 µM
same,TGI,[33],14.2 µM
same,TGI,[34],10.5 µM
same,TGI,[59],18 µM
same,TGI,[35],14.1 µM
same,TGI,[36],6.75 µM
same,TGI,[37],7.97 µM
same,TGI,[38],8.3 µM
same,TGI,[39],3.68 µM
same,TGI,[40],9.08 µM
same,TGI,[41],8.03 µM
same,TGI,[42],3.5 µM
same,TGI,[43],8.32 µM
same,TGI,[44],10.4 µM
same,TGI,[45],3.7 µM
same,TGI,[46],24.1 µM
same,TGI,[47],9.87 µM
same,TGI,[48],6.49 µM
same,TGI,[49],5.51 µM
same,TGI,[50],6.07 µM
same,TGI,[51],11.2 µM
same,TGI,[52],12.6 µM
same,TGI,[53],6.1 µM
same,TGI,[54],3.68 µM
same,TGI,[55],4.55 µM
same,TGI,[56],9.32 µM
same,TGI,[57],9.68 µM
